Assay results reported in article PMC11407758, “Integrated stress response (ISR) activation and apoptosis through HRI kinase by PG3 and other p53 pathway-restoring cancer therapeutics” (Oncotarget, 2024).

What was measured:
[1] = tested on: GCN2, PKR, eIF2α, ATF4, CHOP in HT29 cells; assay: Western blot, ISR kinases / eIF2α / ATF4 / CHOP; type: cell-based, human; conditions: pre-treatment 2 hours, then ONC201 or PG3 for 24 hour
Procedure: Figure 7 PG3 induces upregulation of ATF4 through ISR via HRI. (A) HT29 cells were treated with PG3, GSK2606414, TG and ONC201 respectively, or co-treatment with PG3/GSK2606414, PG3/TG, and PG3/ONC201 for 15 h. (B) MEF, MEF^PERK−/− and MEF^GCN2−/− cells were treated with PG3 and ONC201 for 16 hours. (C) HT29 cells were transfected with siControl, siPKR, siHRI and siPKR/siHRI for 24 hours and then treated with PG3 for 16 hours. (D) HCT116 p53^−/− cells were transfected with siControl and siHRI for 24 hours and then treated with PG3 for 16 hours. (E) HCT116 p53^−/− cells were treated with PG3 and ONC201 for indicated times. (F) PANC1-sgCtrl, -sgHRI and -sgPKR cell lines were treated with PG3 and imipridones (ONC201, ONC206 and ONC212) for 16 hours. Western blot was performed using indicated antibodies. (G) Proposed model of PG3-induced cell apoptosis through HRI/ATF4/PUMA axis. Abbreviation: L.E.: Long exposure.
(§1) After treatment, protein lysates were collected for Western blot analysis. A total of 15 μg of protein was used for SDS-PAGE. After primary and secondary antibody incubations, the signal was detected by a chemiluminescence detection kit, imaged by Syngene (Imgen Technologies). Antibodies for NAG-1 (GDF15) and P53 were from Santa Cruz Biotechnology; for caspase 8, cleaved caspase 8, caspase 9, caspase 3, cleavage PARP, eIF2α, p-eIF2α (Ser51), CHOP, ATF4, DR5, and PUMA were from Cell Signaling Technology. Noxa and p21 were from Calbiochem. Ran was from BD Biosciences.
Supplementary Figure 2: ROS and NO are not responsible for PG3-induced HRI activation. (A, B) cells were pre-treated
with ZnPP, L-NMMA, SA and NAC for 2 hours respectively, and then ONC201 or PG3 was added to the medium for 24 hour treatment.
Western blot was performed using indicated antibodies.
(1 picture or pasted object on this page, not shown here)

[2] = tested on: HCT116 (WT); assay: Cell viability assay (CellTiterGlo), HCT116 WT; type: cell-based, human
Procedure: (§2) Figure 1 PG3 inhibits cell proliferation and growth in a p53-indepent manner. (A–E) Cell viability assay, dose response curves and IC50 value measurements in a panel of cancer cell lines and normal cells. Cells were treated with different concentrations of PG3, PG3-Oc (Oc), obatoclax (Ob), prodigiosin (P) or DMSO for 72 h. Luciferase activity was imaged by the IVIS Imaging System after treatment. Cell viability data were normalized to those of DMSO treatment control in each cell line and data analyses were performed using PRISM4 software. IC50 data are expressed as the mean ±SD (normal; n = 3).
as §2, with “2 p53-dependent inhibition of” for “1 PG3 inhibits”, “is only observed at specific concentrations. (A–J)” for “and growth in a p53-indepent manner. (A–E)”, “ZMC1, CP-313908, APR-246, Ellipticine, Nutalin-3a” for “PG3, PG3-Oc (Oc), obatoclax (Ob), prodigiosin (P)”
(§3) Cells were seeded in 96-well plates (6 × 10^3 cells/well). Cells were treated with different concentrations of compounds or dimethyl sulfoxide (DMSO) as a control for 72 hours. The cell viability was assessed by CellTiterGlo bioluminescent cell viability assay (Promega), following the manufacturer’s protocol. Bioluminescence imaging was measured using the IVIS imager. The percentage of cell viability (mean ± SEM) at each dose was calculated against the respective DMSO control. The IC50 values were determined from the sigmoidal dose-response curves using GraphPad Prism.

[3] = tested on: HT29, TOV-112D, isogenic HCT116 cell lines, HFF-1 and MRC5; assay: Cell viability assay, panel of cancer cell lines and normal cells (results in words); type: cell-based, human
Procedure: as §2, with “2 p53-dependent inhibition of” for “1 PG3 inhibits”, “is only observed at specific concentrations. (A–J)” for “and growth in a p53-indepent manner. (A–E)”, “ZMC1, CP-313908, APR-246, Ellipticine, Nutalin-3a” for “PG3, PG3-Oc (Oc), obatoclax (Ob), prodigiosin (P)”
as §3

[4] = tested on: ATF4; assay: Western blot, ATF4 induction; type: cell-based, human; conditions: five cancer cell lines, 24 h
Procedure: (§4) Figure 4 Activation of ATF4 and up-regulation of typical p53 target genes. (A–E) Western blot analysis of p53 protein levels and upregulation of ATF4, PUMA, DR5 and p21. Cells were treated for 24 h with indicated compounds, concentrations and cell lines. Abbreviations: S.E.: Short exposure; L.E.: Long exposure.
as §1

[5] = tested on: p53 protein; assay: Western blot, p53 protein levels; type: cell-based, human; conditions: for wild-type p53 protein level: HCT116, 24 h; for endogenous mutant p53 R273H protein level: HT29, 24 h; for endogenous mutant p53 R175H protein level: TOV-112D; for endogenous mutant p53 R175H protein level / exogenous mutant p53 R175H protein level: 24 h; for exogenous mutant p53 R175H protein level: engineered HCT116-R175H cells
Procedure: Cells were treated for 24 h with indicated compounds, concentrations and cell lines. Abbreviations: S.E.: Short exposure; L.E.: Long exposure.
as §1

[6] = tested on: DR5; assay: Western blot, DR5 induction; type: cell-based, human
Procedure: as §4, §1

[7] = tested on: PUMA; assay: Western blot, PUMA induction; type: cell-based, human
Procedure: as §4, §1

[8] = tested on: p21; assay: Western blot, p21 induction; type: cell-based, human
Procedure: as §4, §1

[9] = tested on: HT29 (R273H); assay: Cell viability assay (CellTiterGlo), HT29; type: cell-based, human; conditions: Homo sapiens, HT-29; 72 h, CellTiterGlo
Procedure: as §2
as §2, with “2 p53-dependent inhibition of” for “1 PG3 inhibits”, “is only observed at specific concentrations. (A–J)” for “and growth in a p53-indepent manner. (A–E)”, “ZMC1, CP-313908, APR-246, Ellipticine, Nutalin-3a” for “PG3, PG3-Oc (Oc), obatoclax (Ob), prodigiosin (P)”
as §3

[10] = tested on: TOV-112D (R175H); assay: Cell viability assay (CellTiterGlo), TOV-112D; type: cell-based, human; conditions: Homo sapiens, TOV112D; 72 h, CellTiterGlo; read-out: IC50 values, TOV-1120 (R175H) (converted)
Procedure: as §2
as §2, with “2 p53-dependent inhibition of” for “1 PG3 inhibits”, “is only observed at specific concentrations. (A–J)” for “and growth in a p53-indepent manner. (A–E)”, “ZMC1, CP-313908, APR-246, Ellipticine, Nutalin-3a” for “PG3, PG3-Oc (Oc), obatoclax (Ob), prodigiosin (P)”
as §3

[11] = tested on: HCT116 (P53−/−); assay: Cell viability assay (CellTiterGlo), HCT116 p53-/-; type: cell-based, human; conditions: Homo sapiens, HCT-116; 72 h, CellTiterGlo
Procedure: as §2
as §2, with “2 p53-dependent inhibition of” for “1 PG3 inhibits”, “is only observed at specific concentrations. (A–J)” for “and growth in a p53-indepent manner. (A–E)”, “ZMC1, CP-313908, APR-246, Ellipticine, Nutalin-3a” for “PG3, PG3-Oc (Oc), obatoclax (Ob), prodigiosin (P)”
as §3

[12] = tested on: HCT116 (R175H); assay: Cell viability assay (CellTiterGlo), HCT116 R175H; type: cell-based, human; conditions: Homo sapiens, HCT-116; 72 h, CellTiterGlo
Procedure: as §2
as §2, with “2 p53-dependent inhibition of” for “1 PG3 inhibits”, “is only observed at specific concentrations. (A–J)” for “and growth in a p53-indepent manner. (A–E)”, “ZMC1, CP-313908, APR-246, Ellipticine, Nutalin-3a” for “PG3, PG3-Oc (Oc), obatoclax (Ob), prodigiosin (P)”
as §3

[13] = tested on: HFF-1 (human foreskin fibroblast cell with wild-type p53); assay: Cell viability assay (CellTiterGlo), HFF-1 normal cells; type: cell-based; conditions: Homo sapiens, HFF-1; 72 h, CellTiterGlo, normal cells; read-out: IC50 values, HFF-l (WT)
Procedure: as §2
as §2, with “2 p53-dependent inhibition of” for “1 PG3 inhibits”, “is only observed at specific concentrations. (A–J)” for “and growth in a p53-indepent manner. (A–E)”, “ZMC1, CP-313908, APR-246, Ellipticine, Nutalin-3a” for “PG3, PG3-Oc (Oc), obatoclax (Ob), prodigiosin (P)”
as §3

[14] = tested on: SW480 cells carrying a p53-responsive luciferase reporter; assay: p53-responsive reporter assay; type: cell-based, human; conditions: 10 μM, 6 hour and 15 hour time points
Procedure: SW480 cells carrying a p53-responsive luciferase reporter were used for assay of functional restoration of mutant p53. Cells were seeded in 96-well plates (5 × 10^4 cells/well) and were treated with compounds indicated for 6 and 15 h, respectively. Then, D-luciferin was added to each well with final concentration 100 μg/mL, and cells were imaged by using an IVIS Imaging System to detect luciferase activity.
p53-mutant SW480 human colon cancer cells, stably expressing a p53-responsive luciferase reporter, were used to assay functional restoration p53 pathway-dependent transcription in mutant p53-expressing tumor cells. Cells were seeded in 96-well plates (5 × 10^4 cells/well) and were treated with small-molecule compounds for 6 and 15 h, respectively. Then, D-luciferin was added to each well at a final concentration of 100 μg/mL, and cells were imaged by using an IVIS Imaging System (Xenogen) to detect luciferase activity.

C=CC1=C(C)c2cc3[n-]c(cc4nc(cc5[n-]c(cc1n2)c(C)c5C=C)C(C)=C4CCC(=O)O)c(CCC(=O)O)c3C.[Zn+2] [ZnPP, Zinc protoporphyrin]
effect on PG3- or ONC201-induced upregulation of ATF4 [1]: do not attenuate or block

COc1ccc(C2=N[C@@H](c3ccc(Cl)cc3)[C@@H](c3ccc(Cl)cc3)N2C(=O)N2CCNC(=O)C2)c(OC(C)C)c1 [Nutlin-3a]
inhibition of viability ([2]; p53 wild-type HCT116, 6.67 μM): selectively inhibits the viability | inhibitory activity ([3]; HT29 and TOV-112D): shows inhibitory activity | effect on viability ([3]; p53-null and p53 R175H HCT116, 6.67 μM): no significant effects | upregulation of ATF4 [4]: do not upregulate ATF4 | wild-type p53 protein level [5]: stabilizes | endogenous mutant p53 R273H protein level [5]: no effects | endogenous mutant p53 R175H protein level [5]: no effects | exogenous mutant p53 R175H protein level [5]: no effects | upregulation of DR5 ([6]; five cell lines, 24 h): does not upregulate DR5 | upregulation of PUMA ([7]; HCT116 (p53 wild-type), 24 h): significantly upregulates | upregulation of p21 ([8]; HCT116 (p53 wild-type), 24 h): significantly upregulates

CC(=O)N[C@@H](CS)C(=O)O [NAC, N-acetylcysteine]
effect on PG3- or ONC201-induced upregulation of ATF4 [1]: do not attenuate or block

Cc1c2ccncc2c(C)c2c1[nH]c1ccccc12 [Ellipticine]
IC50 [9]: 0.713 µM | IC50 [10]: 19.3 µM | IC50 [11]: 2.42 µM | IC50 ([2]; Homo sapiens, HCT-116, 72 h, CellTiterGlo): 0.999 µM | selective toxicity among isogenic HCT116 cell lines ([2]; isogenic HCT116 cell lines, 1.11 μM): selective toxicity towards the p53-wild-type cell line | IC50 [12]: 1.79 µM | IC50 [13]: 6.07 µM | toxicity to normal cells ([3]; HFF-1 and MRC5, 0.04 to 3.33 μM): no significant toxicity | inhibition of proliferation ([3]; HT29 and TOV-112D, 0.04 to 3.33 μM): selectively inhibits the proliferation | p53-responsive reporter activity [14]: activates the reporter activity | upregulation of ATF4 [4]: do not upregulate ATF4 | wild-type p53 protein level [5]: potently stabilizes | endogenous mutant p53 R273H protein level [5]: stabilized | endogenous mutant p53 R175H protein level [5]: mildly downregulates | exogenous mutant p53 R175H protein level [5]: upregulates | upregulation of DR5 ([6]; HCT116 (p53 wild-type), 24 h): slightly upregulates the short isomer of DR5 | upregulation of DR5 ([6]; HT29, 24 h): slightly upregulates the short isomer of DR5 | upregulation of PUMA ([7]; HCT116 (p53 wild-type), 24 h): mildly upregulates PUMA | upregulation of PUMA ([7]; HT29, 24 h): does not upregulate PUMA | upregulation of PUMA ([7]; TOV-112D, 24 h): does not upregulate PUMA | upregulation of p21 ([8]; HCT116 (p53 wild-type), 24 h): significantly upregulates p21 | upregulation of p21 ([8]; HCT116 p53-R175H, 24 h): mildly upregulates p21 | upregulation of p21 ([8]; HCT116 p53–/–, 24 h): slightly upregulates p21 | upregulation of p21 ([8]; HT29, 24 h): slightly upregulates p21 | upregulation of p21 ([8]; TOV-112D, 24 h): mildly upregulates p21
